The nature of the data set: solvent given as SMILES.
Where [1] appears, read: in CCCCCCCCC=CCCCCCCCC(=O)OCC(COC(=O)CCCCCCCC=CCCCCCCCC)OC(=O)CCCCCCCC=CCCCCCCCC

The structures appear in SMILES notation.

In the case of `CCCc1ccc(O)cc1`, the “solvation free energy, 298 K” value (in O) was -5.21 kcal/mol.
Consider `OC(Cl)CCCl` (stereo not drawn), for which the “solvation free energy, 298 K” value (in CCCCCCCCCCO) is -7 kcal/mol.
As for `Clc1cccnc1`, the “solvation free energy, 298 K” value (in O) was -4.01 kcal/mol.
As for `c1cc2ccc3cccc4ccc(c1)c2c34`, the “solvation free energy, 298 K” value is, setting by setting: (in Brc1ccccc1) -13.2 kcal/mol; (in C1CCOC1) -13.4 kcal/mol; (in C1COCCO1) -13 kcal/mol; (in CC(=O)N(C)C) -13.3 kcal/mol; (in CC(C)(C)O) -11.2 kcal/mol; (in CC(C)=O) -12.7 kcal/mol. Besides, the “solvation free energy, 298 K” value is -11.3 kcal/mol (in CC(C)CC(C)(C)C); -11.4 kcal/mol (in CC(C)CC(C)O); -11.4 kcal/mol (in CC(C)CCO); -11.2 kcal/mol (in CC(C)CO); -11.5 kcal/mol (in CC(C)O); -12 kcal/mol (in CC(C)OC(C)C). Further, the “solvation free energy, 298 K” value is, setting by setting: (in CC(O)COC(C)(C)C) -12.3 kcal/mol; (in CCC(C)(C)O) -11.5 kcal/mol; (in CCC(C)=O) -13 kcal/mol; (in CCC(C)O) -11.3 kcal/mol; (in CCCC(=O)OC) -12.7 kcal/mol; (in CCCC(C)CO) -11.5 kcal/mol. For the same molecule, the “solvation free energy, 298 K” value runs as follows: (in CCCC(C)O) -11.5 kcal/mol; (in CCCCC(CC)CO) -11.7 kcal/mol; (in CCCCCC) -11.5 kcal/mol; (in CCCCCCC) -11.6 kcal/mol; (in CCCCCCCC) -11.7 kcal/mol; under setting [1], -12.3 kcal/mol. In addition, the “solvation free energy, 298 K” value reads like this: (in CCCCCCCCCC) -11.8 kcal/mol; (in CCCCCCCCO) -11.9 kcal/mol; (in CCCCCCCO) -11.8 kcal/mol; (in CCCCCCO) -11.8 kcal/mol; (in CCCCCO) -11.7 kcal/mol; (in CCCCCOC(C)=O) -12.7 kcal/mol. The “solvation free energy, 298 K” value is -12.8 kcal/mol (in CCCCCl); -11.6 kcal/mol (in CCCCO); -12.7 kcal/mol (in CCCCOC(C)=O); -12.1 kcal/mol (in CCCCOCCCC); -12.4 kcal/mol (in CCCCOCCO); -11.5 kcal/mol (in CCCO). Further, the “solvation free energy, 298 K” value runs as follows: (in CCCOCCO) -12.4 kcal/mol; (in CCO) -11.6 kcal/mol; (in CCOC(C)=O) -12.7 kcal/mol; (in CCOCC) -12.4 kcal/mol; (in CCOCCO) -12.5 kcal/mol; (in CN(C)C=O) -13.2 kcal/mol. Besides, the “solvation free energy, 298 K” value is -11.8 kcal/mol (in CNC=O); -11.2 kcal/mol (in CO); -12.2 kcal/mol (in COC(C)(C)C); -12.6 kcal/mol (in COC(C)=O); -12.3 kcal/mol (in COC(C)CCO); -12.2 kcal/mol (in COCCO). Besides, the “solvation free energy, 298 K” value was -12.8 kcal/mol (in Cc1ccc(C)cc1); -12.8 kcal/mol (in Cc1cccc(C)c1); -12.9 kcal/mol (in Cc1ccccc1C); -12.7 kcal/mol (in ClC(Cl)(Cl)Cl); -13.2 kcal/mol (in ClC(Cl)Cl); -13.2 kcal/mol (in ClCCCl). Further, the “solvation free energy, 298 K” value runs as follows: (in Fc1ccccc1) -12.9 kcal/mol; (in N#Cc1ccccc1) -13.1 kcal/mol; (in O) -4.77 kcal/mol; (in O=C1CCCCC1) -13.2 kcal/mol.
Turning to `CCC(C)OC(C)CC` (stereo not drawn), the “solvation free energy, 298 K” value (in O) was -0.8 kcal/mol.
For `C=C(C)C1=CC=C(C)CC1`, the “solvation free energy, 298 K” value (in O) was -1.35 kcal/mol.
With `C=C(C)C1CCC(C)C12CC=C(C)CC2` (stereo not drawn), for the setting “in O”, the “solvation free energy, 298 K” value stood at 0.25 kcal/mol.
On to `CC(C)CCCOC(=O)c1ccccc1C(=O)OCCCC(C)C`, for which the “solvation free energy, 298 K” value (in O) is -6.73 kcal/mol.
As for `CCCCCCCN`, the “solvation free energy, 298 K” value (in CCCCCCC) was -6.22 kcal/mol.
Regarding `COc1ccccc1OC`, the “solvation free energy, 298 K” value (in O) is -5.33 kcal/mol.
On to `O=c1[nH]c2ccccc2n1C1CCN(CCCC(c2ccc(F)cc2)c2ccc(F)cc2)CC1`, for which the “solvation free energy, 298 K” value is -27.7 kcal/mol (in C1COCCO1); -26.4 kcal/mol (in CC(C)O); -26.7 kcal/mol (in CCCCCCCCO); -26.8 kcal/mol (in CCCCCCCO); -26.7 kcal/mol (in CCCCCCO); -26.8 kcal/mol (in CCCCCO). Also, the “solvation free energy, 298 K” value reads like this: (in CCCCO) -26.7 kcal/mol; (in CCCO) -26.6 kcal/mol; (in CCO) -26.6 kcal/mol; (in CCOC(C)=O) -26.6 kcal/mol; (in CO) -26.6 kcal/mol.
On to `CC(C(=O)O)c1ccc2c(c1)[nH]c1ccc(Cl)cc12` (stereo not drawn), for which the “solvation free energy, 298 K” value (in O) was -15.1 kcal/mol.
Turning to `COC(OC)(OC)c1ccccc1`, under “in O”, the “solvation free energy, 298 K” value was -4.04 kcal/mol.
Take `C1=CC=CCC=C1`: under “in O”, the “solvation free energy, 298 K” value is -0.99 kcal/mol.
`CCCCCCOC(=O)c1ccccc1C(=O)OCCCCCC`: the “solvation free energy, 298 K” value (in O) is -6.78 kcal/mol.
On to `CC(C)C(=O)CC(=O)C(C)C`, for which the “solvation free energy, 298 K” value (in O) is -4.08 kcal/mol.
For the molecule `COc1nc(NC(C)C)nc(NC(C)C)n1`, the “solvation free energy, 298 K” value (in O) is -9.69 kcal/mol.
Turning to `Brc1ccc(Br)cc1`, the “solvation free energy, 298 K” value (in CC(C)(C)O) was -6.86 kcal/mol; the “solvation free energy, 298 K” value (in CC(C)CCO) was -7.01 kcal/mol; the “solvation free energy, 298 K” value (in CC(C)CO) is -6.92 kcal/mol; the “solvation free energy, 298 K” value (in CCC(C)O) is -6.94 kcal/mol; the “solvation free energy, 298 K” value (in CCCC(C)O) is -6.98 kcal/mol; the “solvation free energy, 298 K” value (in CCCCCC) was -7.25 kcal/mol. Further, the “solvation free energy, 298 K” value runs as follows: (in CCCCCCC) -7.55 kcal/mol; under setting [1], -7.01 kcal/mol; (in CCCCCCCCO) -7.11 kcal/mol; (in CCCCOCCCC) -7.74 kcal/mol; (in CCOCC) -8.21 kcal/mol; (in COC(C)(C)C) -7.73 kcal/mol. In addition, the “solvation free energy, 298 K” value (in ClC(Cl)(Cl)Cl) is -7.9 kcal/mol.
With `CC(=O)CC(=O)c1ccc(F)c(F)c1F`, the “solvation free energy, 298 K” value (in O) is -5.07 kcal/mol.

For the origin of these results see the CombiSolv-Exp solvation set (Vermeire and Green 2021).
